Holding throughout (experiment): radiometric citrulline NOS assay
Holding throughout (type): biochemical

Assay [1] deals with T1, Physarum NOS form A (clone A1; physnosa) (Badhamia polycephala, UniProt A6XKZ4).
Assay [2] deals with T2, Physarum NOS form B (clone B+; physnosb) (Badhamia polycephala, UniProt A6XKZ6).
Assay [3] has as its target T2, Physarum NOS form B (clone B+; physnosb). The source holds these as a separate data set.
Assay [4] has as its target T1, Physarum NOS form A (clone A1; physnosa). The source holds these as a separate data set.

For `N=C(NCCC[C@H](N)C(=O)O)N[N+](=O)[O-]` [L-NNA, N^ω-nitro-L-arginine], the results for the 50% inhibitory concentration (IC50) in assay [1] and in assay [2] were 25.7 ± 10.7 µM and 39.8 ± 20.3 µM, respectively.

As to `C[C@H](O)[C@H](O)[C@H]1CNc2nc(N)[nH]c(=O)c2N1` [H4-bip, 6R-5,6,7,8-tetrahydro-L-biopterin], the EC50 – broadly, the concentration at which the effect is half-maximal – in assay [3] stood at 0.7 ± 0.1 µM; in assay [4] it was 7.9 ± 1.2 µM.

As to `Cc1cc2nc3c(=O)[nH]c(=O)nc-3n(C[C@H](O)[C@H](O)[C@H](O)COP(=O)(O)OP(=O)(O)OC[C@H]3O[C@@H](n4cnc5c(N)ncnc54)[C@H](O)[C@@H]3O)c2cc1C` [FAD], the EC50 was 2.1 ± 1.6 µM in assay [3] and 3.9 ± 1.6 µM in assay [4].

For `CC(=N)NCCCC[C@H](N)C(=O)O` [L-NIL, L-N6(1-iminoethyl)-lysine], the IC50 – broadly, the midpoint of a concentration-inhibition curve – is 81.3 ± 7.8 µM in assay [1] and 76.7 ± 4.3 µM in assay [2].

As to `Cc1cc2nc3c(=O)[nH]c(=O)nc-3n(C[C@H](O)[C@H](O)[C@H](O)COP(=O)(O)O)c2cc1C` [FMN], the results for the EC50 in assay [3] and in assay [4] were 0.2 ± 0.2 µM and 1.7 ± 0.6 µM, respectively.

As to `CNC(=N)NCCC[C@H](N)C(=O)O` [L-NMMA, N^ω-methyl-L-arginine], the concentration for half-maximal inhibition (IC50) in assay [1] is 45.2 ± 23.5 µM; in assay [2], 44.3 ± 19.2 µM.

Take `NC(=O)C1=CN([C@@H]2O[C@H](COP(=O)(O)OP(=O)(O)OC[C@H]3O[C@@H](n4cnc5c(N)ncnc54)[C@H](OP(=O)(O)O)[C@@H]3O)[C@@H](O)[C@H]2O)C=CC1` [NADPH]: the concentration for a half-maximal effect (EC50) was 60.3 ± 13.8 µM in assay [3] and 57.2 ± 6.5 µM in assay [4].

The values above are taken from article PMC2677215 (Biochemical Journal, 2009).
